Legend:
Type in all cases: physicochemical
[1] = Hygroscopicity after one month storage in closed containers; design: key: 1: non-hygroscopic, no visible change observed; 2: slightly hygroscopic, aggregation and lumping developed, loss of flowability; 3: hygroscopic, semi-solid material; 4: deliquescent, liquefied syrup-like product; settings: after one month in closed containers at room temperature in atmospheric air (relative humidity ~50-80%)
Experimental: The hygroscopicity was determined after one month in closed containers at room temperature in atmospheric air (relative humidity ˜50-80%)
The observed samples could be divided into four groups in accordance to their hygroscopic properties:
1=non-hygroscopic, no visible change observed
2=slightly hygroscopic, aggregation and lumping developed, loss of flowability
3=hygroscopic, semi-solid material
4=deliquescent, liquefied syrup-like product

[2] = Water content by thermal gravimetric analysis (TGA); settings: solid product
Experimental: (§1) Thermal gravimetric analysis (TGA) was applied for measuring amounts of volatiles (residual solvents and water) in the solid. Water content was measured by Karl Fischer method (KF).

[3] = Water content by Karl Fischer method (KF); settings: solid product
Experimental: as §1

Hygroscopicity [1]: 1 | Water content, % By TGA [2]: < 0.1% | Water content, % By KF [3]: 0.1%
Compound: C#CCN[C@@H]1CCc2ccccc21 [Rasagiline base, R(+)-N-propargyl-l-aminoindan]

Source: patent US7547806B2, “Tannate salt of rasagiline” (Teva Pharmaceutical Industries, Ltd., priority 2006, dated 2009)
